ChEMBL document CHEMBL1201862, “PubChem BioAssay data set” (2004)
Calls of active or inactive are those of the source.

Experiments:
[1] = target: T1, Leucine aminopeptidase (Plasmodium falciparum 3D7, UniProt Q8IL11); assay: P. falciparum M17LAP inhibitors, primary screen, biochemical, fluorogenic H-Leu-NHMec substrate, 1536-well (AID 1619); format: functional
T1 sequence (Q8IL11 whole entry): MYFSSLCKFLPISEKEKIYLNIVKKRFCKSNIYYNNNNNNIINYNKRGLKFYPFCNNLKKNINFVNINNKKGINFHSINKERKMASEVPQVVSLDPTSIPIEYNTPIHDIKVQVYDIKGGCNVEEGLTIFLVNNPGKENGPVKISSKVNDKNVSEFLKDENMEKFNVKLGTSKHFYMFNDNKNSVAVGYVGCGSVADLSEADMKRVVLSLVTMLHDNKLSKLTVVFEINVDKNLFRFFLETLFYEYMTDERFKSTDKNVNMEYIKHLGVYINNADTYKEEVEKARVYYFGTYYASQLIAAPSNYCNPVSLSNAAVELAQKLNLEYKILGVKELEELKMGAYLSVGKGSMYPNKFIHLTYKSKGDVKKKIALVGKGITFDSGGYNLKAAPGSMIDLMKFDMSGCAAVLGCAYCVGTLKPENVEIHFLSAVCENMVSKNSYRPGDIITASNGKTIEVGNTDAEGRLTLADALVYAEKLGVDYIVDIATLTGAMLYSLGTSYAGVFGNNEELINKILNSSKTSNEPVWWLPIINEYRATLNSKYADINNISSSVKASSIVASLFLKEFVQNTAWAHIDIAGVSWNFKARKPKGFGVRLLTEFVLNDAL

[2] = target: Cytochrome P450 3A4 (Homo sapiens, UniProt P08684);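 note: CYP3A4 tested as one member of a cytochrome P450 panel screen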
Cytochrome P450 3A4, sequence (P08684 whole entry): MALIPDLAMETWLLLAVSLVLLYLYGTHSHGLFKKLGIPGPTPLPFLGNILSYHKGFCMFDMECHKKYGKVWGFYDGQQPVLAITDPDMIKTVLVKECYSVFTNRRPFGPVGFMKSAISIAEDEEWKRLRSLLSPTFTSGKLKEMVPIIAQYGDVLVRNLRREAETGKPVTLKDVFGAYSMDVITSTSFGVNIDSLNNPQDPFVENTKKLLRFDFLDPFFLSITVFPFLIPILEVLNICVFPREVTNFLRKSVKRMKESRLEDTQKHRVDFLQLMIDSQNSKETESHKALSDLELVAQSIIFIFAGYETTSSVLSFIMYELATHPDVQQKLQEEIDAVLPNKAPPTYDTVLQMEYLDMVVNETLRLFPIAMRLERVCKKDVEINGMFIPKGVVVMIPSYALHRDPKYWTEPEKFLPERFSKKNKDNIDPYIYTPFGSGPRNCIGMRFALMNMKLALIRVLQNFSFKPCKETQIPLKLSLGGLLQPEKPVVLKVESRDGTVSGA

[3] = target: Procathepsin L (Homo sapiens, UniProt P07711); assay: CTSL1 protease inhibition – biochemical, QFRET, 1536-well, counter-screen for M1/M17 aminopeptidase inhibitor project, dose response (AID 2214)
Procathepsin L, sequence (P07711 whole entry): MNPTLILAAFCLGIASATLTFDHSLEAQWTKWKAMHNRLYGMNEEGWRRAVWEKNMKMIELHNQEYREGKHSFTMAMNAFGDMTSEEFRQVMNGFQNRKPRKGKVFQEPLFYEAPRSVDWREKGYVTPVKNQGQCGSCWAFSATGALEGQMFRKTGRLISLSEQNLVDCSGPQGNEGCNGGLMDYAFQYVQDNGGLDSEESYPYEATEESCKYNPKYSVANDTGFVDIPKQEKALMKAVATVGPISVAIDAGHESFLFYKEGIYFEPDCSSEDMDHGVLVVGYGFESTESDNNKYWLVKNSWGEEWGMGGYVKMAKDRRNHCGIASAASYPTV

[4] = target: Cytochrome P450 2C19 (Homo sapiens, UniProt P33261); assay: Cytochrome panel assay with activity outcomes. Panel member name: p450-cyp2c19 Compounds with AC50 equal or less than 10 uM are considered active; format: functional; settings: read-out: AC50
Cytochrome P450 2C19, sequence (P33261 whole entry): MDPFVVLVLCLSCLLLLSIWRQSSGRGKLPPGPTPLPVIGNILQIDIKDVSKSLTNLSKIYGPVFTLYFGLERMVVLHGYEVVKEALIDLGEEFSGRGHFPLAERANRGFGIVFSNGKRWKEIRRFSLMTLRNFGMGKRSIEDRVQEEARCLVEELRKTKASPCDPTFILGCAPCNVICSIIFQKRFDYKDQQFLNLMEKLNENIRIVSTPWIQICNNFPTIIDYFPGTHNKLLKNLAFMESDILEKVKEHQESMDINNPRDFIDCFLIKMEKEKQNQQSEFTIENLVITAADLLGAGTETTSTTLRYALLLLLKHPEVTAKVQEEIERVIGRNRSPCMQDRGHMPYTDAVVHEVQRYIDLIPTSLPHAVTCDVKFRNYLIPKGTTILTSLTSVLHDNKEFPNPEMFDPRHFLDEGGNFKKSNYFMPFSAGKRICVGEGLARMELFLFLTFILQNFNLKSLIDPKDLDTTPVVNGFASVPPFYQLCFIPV

[5] = target: T2, Aspartyl aminopeptidase (Plasmodium falciparum 3D7, UniProt Q8I2J3); assay: Counterscreen for inhibitors of M1 and M17 aminopeptidases: QFRET-based biochemical high throughput dose response assay for inhibitors of the Plasmodium falciparum M18 Aspartyl Aminopeptidase (PFM18AAP). [Related PubChem assays: 1619 (Screening assay (M17LAP inhibitors).), 1445 (Screening assay (M1AAP inhibitors).)]
T2 sequence (Q8I2J3 whole entry): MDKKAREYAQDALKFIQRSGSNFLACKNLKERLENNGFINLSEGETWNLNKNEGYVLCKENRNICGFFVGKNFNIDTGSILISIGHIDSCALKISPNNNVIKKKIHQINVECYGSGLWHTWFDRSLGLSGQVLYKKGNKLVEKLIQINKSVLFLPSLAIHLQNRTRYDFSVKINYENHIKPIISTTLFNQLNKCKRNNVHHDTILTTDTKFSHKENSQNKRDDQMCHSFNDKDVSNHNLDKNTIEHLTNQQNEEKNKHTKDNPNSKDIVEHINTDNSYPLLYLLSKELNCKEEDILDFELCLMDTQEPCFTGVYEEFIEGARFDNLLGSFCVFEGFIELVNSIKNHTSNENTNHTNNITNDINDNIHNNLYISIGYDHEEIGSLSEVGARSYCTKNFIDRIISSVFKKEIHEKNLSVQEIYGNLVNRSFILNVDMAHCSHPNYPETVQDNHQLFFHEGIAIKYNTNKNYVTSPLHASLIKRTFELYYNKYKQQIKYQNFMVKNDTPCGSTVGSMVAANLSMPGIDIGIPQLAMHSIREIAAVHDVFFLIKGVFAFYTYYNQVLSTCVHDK

[6] = target: T3, Serine/threonine-protein phosphatase (Homo sapiens, UniProt Q9BPW0); assay: inhibition of protein phosphatase 5 activity – biochemical, fluorescence, dose response (AID 2395)
T3 sequence (Q9BPW0 whole entry): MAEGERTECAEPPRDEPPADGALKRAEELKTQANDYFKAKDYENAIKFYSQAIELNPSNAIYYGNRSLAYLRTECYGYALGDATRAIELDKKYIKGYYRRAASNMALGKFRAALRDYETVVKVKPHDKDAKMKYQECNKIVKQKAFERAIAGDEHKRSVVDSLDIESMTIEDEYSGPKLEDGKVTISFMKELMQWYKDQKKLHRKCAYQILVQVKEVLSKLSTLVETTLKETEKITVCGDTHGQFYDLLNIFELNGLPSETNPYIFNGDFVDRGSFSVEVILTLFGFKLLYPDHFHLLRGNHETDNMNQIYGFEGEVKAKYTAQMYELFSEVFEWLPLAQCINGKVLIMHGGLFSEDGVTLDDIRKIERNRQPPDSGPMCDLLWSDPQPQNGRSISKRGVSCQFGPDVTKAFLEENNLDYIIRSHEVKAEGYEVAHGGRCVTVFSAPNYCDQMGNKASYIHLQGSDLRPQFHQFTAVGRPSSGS

[7] = target: T4, Apoptotic protease-activating factor 1 (Homo sapiens, UniProt O14727); format: functional
T4 sequence (O14727 whole entry): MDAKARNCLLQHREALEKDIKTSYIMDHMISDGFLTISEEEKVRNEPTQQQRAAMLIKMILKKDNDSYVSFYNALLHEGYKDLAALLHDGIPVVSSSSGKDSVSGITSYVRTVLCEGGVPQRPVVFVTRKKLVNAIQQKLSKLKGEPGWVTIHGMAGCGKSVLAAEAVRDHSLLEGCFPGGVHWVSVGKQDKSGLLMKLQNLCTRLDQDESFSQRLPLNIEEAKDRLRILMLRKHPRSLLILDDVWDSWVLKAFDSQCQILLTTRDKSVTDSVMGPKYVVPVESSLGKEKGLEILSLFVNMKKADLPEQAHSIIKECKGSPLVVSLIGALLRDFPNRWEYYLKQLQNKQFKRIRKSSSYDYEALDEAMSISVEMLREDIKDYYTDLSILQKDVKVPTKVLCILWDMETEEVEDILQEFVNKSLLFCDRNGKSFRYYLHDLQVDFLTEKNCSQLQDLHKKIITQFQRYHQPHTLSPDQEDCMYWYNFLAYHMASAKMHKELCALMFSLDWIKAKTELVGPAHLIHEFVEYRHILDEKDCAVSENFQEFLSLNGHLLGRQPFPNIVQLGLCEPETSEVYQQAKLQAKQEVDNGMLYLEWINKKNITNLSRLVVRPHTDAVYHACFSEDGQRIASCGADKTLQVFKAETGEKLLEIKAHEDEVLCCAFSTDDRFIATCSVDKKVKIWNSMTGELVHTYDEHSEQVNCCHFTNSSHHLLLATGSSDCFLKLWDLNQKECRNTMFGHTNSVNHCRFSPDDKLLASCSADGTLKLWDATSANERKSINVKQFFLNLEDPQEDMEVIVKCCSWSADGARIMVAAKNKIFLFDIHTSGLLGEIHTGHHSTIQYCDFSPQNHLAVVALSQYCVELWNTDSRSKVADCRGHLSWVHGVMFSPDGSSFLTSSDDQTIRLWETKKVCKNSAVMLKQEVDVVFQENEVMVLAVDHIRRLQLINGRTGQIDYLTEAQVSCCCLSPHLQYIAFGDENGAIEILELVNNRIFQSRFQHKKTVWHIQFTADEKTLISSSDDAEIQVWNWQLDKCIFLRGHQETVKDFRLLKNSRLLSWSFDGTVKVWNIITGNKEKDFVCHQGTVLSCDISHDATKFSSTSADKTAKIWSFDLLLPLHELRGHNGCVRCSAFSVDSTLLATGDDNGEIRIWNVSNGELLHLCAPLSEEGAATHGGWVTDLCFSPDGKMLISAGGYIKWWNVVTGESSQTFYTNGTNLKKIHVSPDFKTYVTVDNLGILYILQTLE

[8] = target: Serine/threonine-protein phosphatase PP1-alpha catalytic subunit (Homo sapiens, UniProt P62136); assay: inhibition of protein phosphatase 1 activity – biochemical, fluorescence, dose response (AID 2394)
Serine/threonine-protein phosphatase PP1-alpha catalytic subunit, sequence (P62136 whole entry): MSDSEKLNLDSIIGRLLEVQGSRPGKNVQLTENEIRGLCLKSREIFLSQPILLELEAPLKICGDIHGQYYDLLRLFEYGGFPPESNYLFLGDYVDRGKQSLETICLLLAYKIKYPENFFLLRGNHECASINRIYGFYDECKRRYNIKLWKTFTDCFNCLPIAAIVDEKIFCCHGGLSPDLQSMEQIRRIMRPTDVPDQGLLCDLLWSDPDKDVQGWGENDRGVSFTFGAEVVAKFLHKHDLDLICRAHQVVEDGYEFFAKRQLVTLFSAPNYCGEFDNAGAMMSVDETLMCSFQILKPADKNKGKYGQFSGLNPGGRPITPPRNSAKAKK

[9] = target: T5, Histone-lysine N-methyltransferase NSD2 (Homo sapiens, UniProt O96028); format: biochemical
T5 sequence (O96028 whole entry): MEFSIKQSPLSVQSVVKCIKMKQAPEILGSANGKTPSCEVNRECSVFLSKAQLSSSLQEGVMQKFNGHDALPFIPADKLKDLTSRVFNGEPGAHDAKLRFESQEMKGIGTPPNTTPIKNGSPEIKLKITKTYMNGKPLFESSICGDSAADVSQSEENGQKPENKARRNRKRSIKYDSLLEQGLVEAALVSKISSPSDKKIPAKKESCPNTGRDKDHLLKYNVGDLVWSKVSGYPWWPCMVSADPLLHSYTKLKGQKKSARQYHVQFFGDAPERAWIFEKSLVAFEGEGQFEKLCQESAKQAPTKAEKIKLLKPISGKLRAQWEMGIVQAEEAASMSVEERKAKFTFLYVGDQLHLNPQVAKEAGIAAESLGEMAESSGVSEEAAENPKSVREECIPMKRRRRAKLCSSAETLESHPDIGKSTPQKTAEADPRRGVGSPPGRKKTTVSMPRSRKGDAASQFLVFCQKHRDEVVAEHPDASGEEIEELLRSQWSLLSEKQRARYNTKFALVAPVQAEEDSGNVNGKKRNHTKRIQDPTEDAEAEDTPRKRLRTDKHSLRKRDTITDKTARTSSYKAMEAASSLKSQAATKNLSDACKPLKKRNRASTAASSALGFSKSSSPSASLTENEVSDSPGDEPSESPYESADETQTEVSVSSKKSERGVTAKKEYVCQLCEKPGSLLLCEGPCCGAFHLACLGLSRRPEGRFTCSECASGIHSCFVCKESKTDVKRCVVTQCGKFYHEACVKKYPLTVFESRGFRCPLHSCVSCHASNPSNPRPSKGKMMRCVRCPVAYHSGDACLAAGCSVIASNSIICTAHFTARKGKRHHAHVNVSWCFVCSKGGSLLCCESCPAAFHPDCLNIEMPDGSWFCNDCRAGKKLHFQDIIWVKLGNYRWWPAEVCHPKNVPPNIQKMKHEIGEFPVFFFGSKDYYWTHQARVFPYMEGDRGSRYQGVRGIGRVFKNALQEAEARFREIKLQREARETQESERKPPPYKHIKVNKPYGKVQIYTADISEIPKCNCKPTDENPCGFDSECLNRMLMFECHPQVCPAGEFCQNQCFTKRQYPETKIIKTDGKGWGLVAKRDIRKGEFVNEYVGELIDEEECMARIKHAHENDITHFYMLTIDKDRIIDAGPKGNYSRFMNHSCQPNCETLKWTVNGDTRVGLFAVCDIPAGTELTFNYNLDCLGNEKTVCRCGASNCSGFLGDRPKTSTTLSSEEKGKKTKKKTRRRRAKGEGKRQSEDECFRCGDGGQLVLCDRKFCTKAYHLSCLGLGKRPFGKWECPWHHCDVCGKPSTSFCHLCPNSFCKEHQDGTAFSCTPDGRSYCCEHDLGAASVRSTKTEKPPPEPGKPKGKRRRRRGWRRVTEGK

[10] = target: Ras and Rab interactor 1/Tyrosine-protein kinase ABL1 (Homo sapiens, UniProt P00519+Q13671); format: functional;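 note: biochemical TR-FRET dose-response test measuring inhibition of binding between Rin1 and Abl proteins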
Ras and Rab interactor 1/Tyrosine-protein kinase ABL1, sequence (P00519 whole entry): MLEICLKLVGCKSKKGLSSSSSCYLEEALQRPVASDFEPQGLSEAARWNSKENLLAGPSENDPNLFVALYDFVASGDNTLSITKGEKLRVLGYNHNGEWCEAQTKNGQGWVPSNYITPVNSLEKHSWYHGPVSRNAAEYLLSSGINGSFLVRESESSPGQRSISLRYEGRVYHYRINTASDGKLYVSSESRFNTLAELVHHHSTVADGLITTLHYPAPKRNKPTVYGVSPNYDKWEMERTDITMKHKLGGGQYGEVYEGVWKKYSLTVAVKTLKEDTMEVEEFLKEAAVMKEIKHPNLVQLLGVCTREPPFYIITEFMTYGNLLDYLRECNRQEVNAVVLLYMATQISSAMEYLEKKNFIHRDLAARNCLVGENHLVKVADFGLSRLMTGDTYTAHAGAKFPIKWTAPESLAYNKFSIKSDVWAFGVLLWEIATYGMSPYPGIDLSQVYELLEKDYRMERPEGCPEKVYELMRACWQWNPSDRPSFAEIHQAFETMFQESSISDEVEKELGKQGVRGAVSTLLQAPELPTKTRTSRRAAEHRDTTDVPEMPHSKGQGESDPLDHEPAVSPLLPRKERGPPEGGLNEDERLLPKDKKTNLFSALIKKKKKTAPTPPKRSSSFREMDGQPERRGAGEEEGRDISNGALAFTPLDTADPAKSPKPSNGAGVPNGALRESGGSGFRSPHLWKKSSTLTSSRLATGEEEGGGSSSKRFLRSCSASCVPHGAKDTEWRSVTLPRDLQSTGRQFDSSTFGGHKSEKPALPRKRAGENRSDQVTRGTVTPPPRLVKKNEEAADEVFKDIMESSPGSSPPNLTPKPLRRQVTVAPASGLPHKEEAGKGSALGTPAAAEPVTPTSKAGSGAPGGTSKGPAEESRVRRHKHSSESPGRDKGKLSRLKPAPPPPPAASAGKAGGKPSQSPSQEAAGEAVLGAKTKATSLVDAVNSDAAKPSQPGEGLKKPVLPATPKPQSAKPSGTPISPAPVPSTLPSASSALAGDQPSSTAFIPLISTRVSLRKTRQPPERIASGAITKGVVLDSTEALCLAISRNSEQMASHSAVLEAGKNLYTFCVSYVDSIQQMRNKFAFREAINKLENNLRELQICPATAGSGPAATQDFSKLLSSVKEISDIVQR
Ras and Rab interactor 1/Tyrosine-protein kinase ABL1, sequence (Q13671 whole entry): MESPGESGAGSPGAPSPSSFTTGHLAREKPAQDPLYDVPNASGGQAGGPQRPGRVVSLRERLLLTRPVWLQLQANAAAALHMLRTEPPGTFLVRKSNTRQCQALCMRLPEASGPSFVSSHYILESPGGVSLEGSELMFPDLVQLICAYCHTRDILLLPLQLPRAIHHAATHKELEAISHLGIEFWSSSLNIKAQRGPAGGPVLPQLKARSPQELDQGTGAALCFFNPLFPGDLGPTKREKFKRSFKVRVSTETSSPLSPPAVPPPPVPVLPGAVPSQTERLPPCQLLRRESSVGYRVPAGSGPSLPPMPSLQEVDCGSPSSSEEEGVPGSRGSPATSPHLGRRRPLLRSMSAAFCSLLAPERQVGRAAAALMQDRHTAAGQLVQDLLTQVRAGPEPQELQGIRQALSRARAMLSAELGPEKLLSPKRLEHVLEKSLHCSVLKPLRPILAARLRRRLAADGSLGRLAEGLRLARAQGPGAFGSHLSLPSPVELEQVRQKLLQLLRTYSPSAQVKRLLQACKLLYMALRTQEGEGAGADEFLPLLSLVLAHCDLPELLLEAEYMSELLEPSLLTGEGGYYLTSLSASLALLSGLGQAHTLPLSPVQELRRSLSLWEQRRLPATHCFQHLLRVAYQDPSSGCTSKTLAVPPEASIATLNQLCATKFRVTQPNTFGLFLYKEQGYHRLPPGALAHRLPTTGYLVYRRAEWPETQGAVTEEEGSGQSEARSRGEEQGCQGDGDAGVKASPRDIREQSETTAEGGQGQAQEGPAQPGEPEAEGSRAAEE

[11] = target: T6, Tyrosyl-DNA phosphodiesterase 2 (Homo sapiens, UniProt O95551); assay: potency against TDP2 phosphodiesterase activity – biochemical, epi absorbance, IC50, dose response (AID 743297)
T6 sequence (O95551 whole entry): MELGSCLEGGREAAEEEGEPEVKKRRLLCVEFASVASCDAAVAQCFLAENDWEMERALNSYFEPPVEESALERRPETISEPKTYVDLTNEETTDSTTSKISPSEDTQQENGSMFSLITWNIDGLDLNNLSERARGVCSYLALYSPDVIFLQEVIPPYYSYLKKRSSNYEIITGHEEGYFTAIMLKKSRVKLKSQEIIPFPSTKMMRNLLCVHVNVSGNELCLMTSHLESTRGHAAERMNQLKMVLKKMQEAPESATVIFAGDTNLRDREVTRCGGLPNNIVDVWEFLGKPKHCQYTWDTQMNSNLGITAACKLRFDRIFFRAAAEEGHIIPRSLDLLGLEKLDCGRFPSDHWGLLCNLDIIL

Structure (SMILES)	IC50 [1]	AC50 [2]	IC50 [3]	AC50 [4]	IC50 [5]	IC50 [6]	IC50 [7]	IC50 [8]	AC50 [9]	IC50 [10]	IC50 [11]
Cc1ccc(-c2c(C)sc(NC(=O)C3C4CCC(O4)C3C(=O)O)c2C(=O)OC(C)C)cc1 (centres undefined)	7.67 µM (active)	14.1 µM (inconclusive)	> 59.6 µM (not active)	28.2 µM (inconclusive)	> 73.5 µM (not active)						
CC(=O)C(C(C)=O)C1(O)C(=O)c2ccccc2C1=O						> 22.3 µM (not active)	9.72 µM (active)	> 67 µM (not active)	5.35 µM (active)	> 73.5 µM (inactive)	9.1 µM (active)
O=C(O)Cc1ccc(NC(=O)Nc2cccc(Cl)c2)cc1	1.7 µM (active)		> 59.6 µM (not active)		> 73.5 µM (not active)						
